Measured values published in patent publication US20240000745A1, “COMPOSITIONS AND METHODS USING A COMBINATION OF OLEUROPEIN AND QUERCETIN FOR CELLULAR ENERGY” (SOCIETE DES PRODUITS NESTLE S.A., priority 2020, published 2024).

System: HeLa cells
Assay: Mitochondrial calcium elevation in histamine-stimulated HeLa cells (mitochondrially targeted aequorin luminescence)
Type: cell-based
Protocol: To test the effect of oleuropein (or oleuropein aglycone), quercetin and their combination in living cells, the inventors measured mitochondrial calcium elevation in HeLa cells. HeLa cells were purchased from ATCC. HeLa cells were seeded in 96-well plates at a density of 50000 cells per well in minimal essential medium (DMEM, Gibco), high glucose, +10% fetal calf serum.
Mitochondrial calcium measurements were carried out using Hela cells infected with the adenovirus (from Sirion biotech) expressing the mitochondrially targeted calcium sensor mitochondrial mutated aequorin (Montero et al., 2004). For aequorin reconstitution, 24 hours after infection, cells were incubated for 2 h at room temperature (22±° C.) in standard medium (145 mM NaCl, 5 mM KCl, 1 mM MgCl2, 1 mM CaCl2, 10 mM glucose and 10 mM Hepes, pH 7.4) with 1 μM wild-type coelenterazine.
For treatment, compounds were directly added to the cell culture or myotubes cultures 2 hours before measurements. Luminescence was measured at the FLIPR Tetra Aequorin (Molecular Devices). […] Calibration of the luminescence data into calcium concentration was carried out using an algorithm, as described previously (Alvarez & Montero, 2002). Custom module analysis based on Excel (Microsoft) and GhaphPad Prism 7.02 (GraphPad) software was used for quantification.

Compound: C/C=C1/C(O)OC=C(C(=O)OC)[C@H]1CC(=O)OCCc1ccc(O)c(O)c1 (mixture of isomers) [oleuropein aglycone]
- synergism with quercetin to activate mitochondria via mitochondrial Ca2+ rise (measured effect of the combination vs. theoretical sum of the single effects) (3 μM + 3 μM quercetin, integrated mitochondrial calcium rise evoked by 100 μM histamine, HeLa cells, compounds added 2 hours before measurement, P<0.05): synergizes with quercetin
- level of synergism in combination with quercetin, compared between oleuropein and oleuropein aglycone (synergisms calculated as in FIG. 1 and FIG. 2, n=6, NS at P<0.05 (Student's t-test)): same level of synergism
